Laboratory results published in patent US9994587B2, “HIV protease inhibitors” (priority 2014, dated 2018).

The compounds below were run against T1, wildtype HIV-1 protease (Human immunodeficiency virus type 1 group M subtype B, UniProt P04585) (assay: Assay for inhibition of microbial expressed HIV protease (Pepcleav)). Details: wild type HIV-1 protease 20 pM, peptide substrate 400 micromolar, pH 5.5; mean of at least two independent experiments.
T1 construct: preincubated with the HIV-1 protease (wild type) enzyme in assay buffer; made in house; host or cells: Escherichia coli
Type: biochemical
In short: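 E. coli-expressed enzyme preincubated with inhibitor 30 min at room temperature in 50 mM sodium acetate pH 5.5, 100 mM NaCl, 0.1% BSA, then 400 micromolar peptide substrate added with 20 picomolar protease (final), 1 h at 30° C. Product quantified by LC-MS/MS peak area after formic acid/indinavir quench.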

Row | SMILES | IC50
1 | COC(=O)N[C@H](C(=O)Nc1ccccc1CC[C@@H]1CNC[C@@H](CS(=O)(=O)c2ccc(Cl)cc2)O1)C(c1ccccc1)c1ccccc1 [Example 56, methyl N-[(1S)-1-benzhydryl-2-[[2-[2-[(2R,6S)-6-[(4-chlorophenyl)sulfonylmethyl]morpholin-2-yl]ethyl]phenyl]amino]-2-oxo-ethyl]carbamate] | 110 nM
2 | COC(=O)N[C@H](C(=O)Nc1ccccc1CC[C@@H]1CNC[C@@H](CSc2ccc(Cl)c(Cl)c2)O1)C(c1ccccc1)c1ccccc1 [Example 19, methyl N-[(1S)-1-benzhydryl-2-[[2-[2-[(2R,6S)-6-[(3,4-dichlorophenyl)sulfanylmethyl]morpholin-2-yl]ethyl]phenyl]amino]-2-oxo-ethyl]carbamate] | 8.7 nM
3 | COC(=O)N[C@H](C(=O)Nc1ccccc1CC[C@@H]1CNC[C@@H](CSc2ncnc3c2cnn3C)O1)C(c1ccccc1)c1ccccc1 [Example 36, methyl N-[(1S)-1-benzhydryl-2-[[2-[2-[(2R,6S)-6-[(1-methylpyrazolo[3,4-d]pyrimidin-4-yl)sulfanylmethyl]morpholin-2-yl]ethyl]phenyl]amino]-2-oxo-ethyl]carbamate] | 0.93 nM
4 | COC(=O)N[C@H](C(=O)Nc1ccccc1CC[C@@H]1CNC[C@@H](CSc2ccc(Cl)cc2C)O1)C(c1ccccc1)c1ccccc1 [Example 26, methyl N-[(1S)-1-benzhydryl-2-[[2-[2-[(2R,6S)-6-[(4-chloro-2-methyl-phenyl)sulfanylmethyl]morpholin-2-yl]ethyl]phenyl]amino]-2-oxo-ethyl]carbamate] | 1.3 nM
5 | COC(=O)N[C@H](C(=O)Nc1ccccc1CC[C@@H]1CNC[C@@H](COc2ccc3c(c2)NCCC3)O1)C(c1ccccc1)c1ccccc1 [Example 53, methyl [(2S)-1-oxo-3,3-diphenyl-1-{[2-(2-{(2R,6S)-6-[(1,2,3,4-tetrahydroquinolin-7-yloxy)methyl]morpholin-2-yl}ethyl)phenyl]amino}propan-2-yl]carbamate] | 13 nM
6 | N[C@H](C(=O)Nc1cncc(F)c1CC[C@@H]1CNC[C@@H](CO)O1)C(c1ccc(F)cc1)c1ccc(F)cc1 [Example 120, 4-fluoro-N-(5-fluoro-4-{2-[(2R,6S)-6-(hydroxymethyl)morpholin-2-yl]ethyl}pyridin-3-yl)-β-(4-fluorophenyl)-L-phenylalaninamide] | 380 nM
7 | COC(=O)N[C@H](C(=O)Nc1ccccc1CC[C@@H]1CNC[C@@H](COc2cccc3ncccc23)O1)C(c1ccccc1)c1ccccc1 [Example 51, methyl [(2S)-1-oxo-3,3-diphenyl-1-{[2-[2-{(2R,6S)-6-[(quinolin-5-yloxy)methyl]morpholin-2-yl}ethyl)phenyl]amino}propan-2-yl]carbamate] | 14 nM
8 | COC(=O)N[C@H](C(=O)Nc1ccccc1CC[C@@H]1CNC[C@@H](/C=C/c2ccc(S(C)(=O)=O)cc2)O1)C(c1ccccc1)c1ccccc1 [Example 61, N-α-(methoxycarbonyl)-N-(2-{2-[(2R,6R)-6-{(E)-2-[4-(methylsulfonyl)phenyl]ethenyl}morpholin-2-yl]ethyl}phenyl)-β-phenyl-L-phenylalaninamide] | 5.9 nM
9 | COC(=O)N[C@H](C(=O)Nc1ccccc1CC[C@@H]1CNC[C@@H](COc2ccc(-c3ccccc3)cc2)O1)C(c1ccccc1)c1ccccc1 [Example 11, methyl N-[(1S)-1-benzhydryl-2-oxo-2-[[2-[2-[(2R,6S)-6-[(4-phenylphenoxy)methyl]morpholin-2-yl]ethyl]phenyl]amino]ethyl] carbamate] | 6.6 nM
10 | COC(=O)N[C@H](C(=O)Nc1ccccc1CC[C@@H]1CNC[C@@H](COc2ccc(-c3ccncc3)cc2)O1)C(c1ccccc1)c1ccccc1 [Example 52, N-α-(methoxycarbonyl)-β-phenyl-N-(2-{2-[(2R,6S)-6-{[4-(pyridin-4-yl)phenoxy]methyl}morpholin-2-yl]ethyl}phenyl)-L-phenylalaninamide] | 4 nM
11 | NC(=O)OC[C@@H]1CNC[C@@H](CCc2c(F)cncc2NC(=O)[C@@H](N)C(c2ccc(F)cc2)c2ccc(F)cc2)O1 [Example 124, N-[4-(2-{(2R,6S)-6-[(carbamoyloxy)methyl]morpholin-2-yl}ethyl)-5-fluoropyridin-3-yl]-4-fluoro-β-(4-fluorophenyl)-L-phenylalaninamide] | 120 nM
12 | COC(=O)N[C@H](C(=O)Nc1ccccc1CC[C@H]1CNC[C@@H](CS(=O)(=O)c2ccc(Cl)cc2)O1)C(c1ccccc1)c1ccccc1 [Example 109, N-(2-{2-[(2S,6S)-6-{[(4-chlorophenyl)sulfonyl]methyl}morpholin-2-yl]ethyl}phenyl)-Nα-(methoxycarbonyl)-β-phenyl-L-phenylalaninamide] | 770 nM
13 | COC(=O)N[C@H](C(=O)Nc1ccc(F)cc1CC[C@@H]1CNC[C@@H](COc2ccc(C#N)cc2)O1)C(c1ccccc1)c1ccccc1 [Example 75, N-[2-(2-{(2R,6S)-6-[(4-cyanophenoxy)methyl]morpholin-2-yl}ethyl)-4-fluorophenyl]-Nα-(methoxycarbonyl)-β-phenyl-L-phenylalaninamide] | 46 nM
14 | COC(=O)N[C@H](C(=O)Nc1ccccc1CC[C@@H]1CNC[C@@H](/C=C/c2ccc(Cl)cc2)O1)C(c1ccccc1)c1ccccc1 [Example 60, N-[2-(2-{(2R,6R)-6-[(E)-2-(4-chlorophenyl)ethenyl]morpholin-2-yl}ethyl)phenyl]-Nα-(methoxycarbonyl)-β-phenyl-L-phenylalaniamide] | 19 nM
15 | COC(=O)N[C@H](C(=O)Nc1ccccc1CC[C@@H]1CNC[C@@H](CSc2nnc(Cc3csc(C)n3)o2)O1)C(c1ccccc1)c1ccccc1 [Example 32, methyl N-[(1S)-1-benzhydryl-2-[[2-[2-[(2R,6S)-6-[[5-[(2-methylthiazol-4-yl)methyl]-1,3,4-oxadiazol-2-yl]sulfanylmethyl]morpholin-2-yl]ethyl]phenyl]amino]-2-oxo-ethyl]carbamate] | 8 nM
16 | COC(=O)N[C@H](C(=O)Nc1cccc(F)c1CC[C@@H]1CNC[C@@H](CSc2ccc(Cl)cc2)O1)C(c1ccccc1)c1ccccc1 [Example 73, N-(2-{2-[(2R,6S)-6-{[(4-chlorophenyl)sulfanyl]methyl}morpholin-2-yl]ethyl}-3-fluorophenyl)-Nα-(methoxycarbonyl)-β-phenyl-L-phenylalaninamide] | 0.89 nM
17 | N[C@H](C(=O)Nc1c(CC[C@@H]2CNC[C@@H](CSc3ccc(Cl)cc3)O2)cc[nH]c1=O)C(c1ccccc1)c1ccccc1 [Example 88, N-(4-{2-[(2R,6S)-6-{[(4-chlorophenyl)sulfanyl]methyl}morpholin-2-yl]ethyl}-2-oxo-1,2-dihydropyridin-3-yl)-β-phenyl-L-phenylalaninamide] | 0.04 nM
18 | COC(=O)N[C@H](C(=O)Nc1ccccc1CC[C@@H]1CNC[C@@H](COc2ccc(-n3cncn3)cc2)O1)C(c1ccccc1)c1ccccc1 [Example 15, methyl N-[(1S)-1-benzhydryl-2-oxo-2-[[2-[2-[(2R,6S)-6-[[4-(1,2,4-triazol-1-yl)phenoxy]methyl]morpholin-2-yl]ethyl]phenyl]amino]ethyl] carbamate] | 12 nM
19 | COC(=O)N[C@H](C(=O)Nc1ccccc1CCC1CNC[C@@H](CSc2ccc(Cl)cc2)O1)C(c1ccccc1)c1ccccc1 (stereo partly drawn) [Example 6, methyl N-[(1S)-1-benzhydryl-2-[[2-[2-[(6S)-6-[(4-chlorophenyl)sulfanylmethyl]morpholin-2-yl]ethyl]phenyl]amino]-2-oxo-ethyl]carbamate] | 1.9 nM
20 | COC(=O)N[C@H](C(=O)Nc1ccccc1CC[C@@H]1CNC[C@@H](COc2cccc3c2CCC3)O1)C(c1ccccc1)c1ccccc1 [Example 31, methyl N-[(1S)-1-benzhydryl-2-[[2-[2-[(2R,6S)-6-(indan-4-yloxymethyl)morpholin-2-yl]ethyl]phenyl]amino]-2-oxo-ethyl]carbamate] | 36 nM
21 | COC(=O)N[C@H](C(=O)Nc1ccccc1CC[C@@H]1CNC[C@@H](COc2ccc3cn[nH]c3c2)O1)C(c1ccccc1)c1ccccc1 [Example 45, N-[2-(2-{(2R,6S)-6-[(1H-indazol-6-yloxy)methyl]morpholin-2-yl}ethyl)phenyl]-Nα-(methoxycarbonyl)-β-phenyl-L-phenylalaninamide] | 11 nM
22 | COC(=O)N[C@H](C(=O)Nc1ccccc1CC[C@@H]1CNC[C@@H](C(F)(F)Cc2ccc(Br)cc2)O1)C(c1ccccc1)c1ccccc1 [Example 65, N-[2-(2-{(2R,6S)-6-[2-(4-bromophenyl)-1,1-difluoroethyl]morpholin-2-yl}ethyl)phenyl]-Nα-(methoxycarbonyl)-β-phenyl-L-phenylalaninamide] | 50 nM
23 | COC(=O)N[C@H](C(=O)Nc1ccccc1CC[C@@H]1CNC[C@@H](CSc2ncccc2Cl)O1)C(c1ccccc1)c1ccccc1 [Example 54, N-(2-{2-[(2R,6S)-6-{[(3-chloropyridin-2-yl)sulfanyl]methyl}morpholin-2-yl]ethyl}phenyl)-Nα-(methoxycarbonyl)-β-phenyl-L-phenylalaninamide] | 0.93 nM
24 | COC(=O)N[C@H](C(=O)Nc1c(F)cccc1CC[C@@H]1CNC[C@@H](CSc2nc3cc(F)c(Cl)cc3[nH]2)O1)C(c1ccccc1)c1ccccc1 [Example 77, N-(2-{2-[(2R,6S)-6-{[(6-chloro-5-fluoro-1H-benzimidazol-2-yl)sulfanyl]methyl}morpholin-2-yl]ethyl}-6-fluorophenyl)-Nα-(methoxycarbonyl)-β-phenyl-L-phenylalaninamide] | 11 nM
25 | COC(=O)N[C@H](C(=O)Nc1n[nH]cc1CC[C@@H]1CNC[C@@H](COc2ccc(S(C)(=O)=O)cc2)O1)C(c1ccccc1)c1ccccc1 [Example 115, Nα-(methoxycarbonyl)-N-(4-{2-[(2R,6S)-6-{[4-(methylsulfonyl)phenoxy]methyl}morpholin-2-yl]ethyl}-1H-pyrazol-3-yl)-β-phenyl-L-phenylalaninamide] | 370 nM
